Key:
Test in all cases: Test E greenhouse herbicide test, pre- and postemergence
Format in all cases: in vivo
[1] = test system: ragweed (common ragweed, Ambrosia elatior)
Method in brief: (§1)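 Visual ratings, 0 for no effect up to 100 for complete control, were taken relative to controls 14 to 21 d after greenhouse treatment. Applications used a surfactant-containing non-phytotoxic solvent formulation, sprayed either preemergence on silt loam-sown seed or postemergence on 1- to 4-leaf plants 2-18 cm tall in peat-based potting medium.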

[2] = test system: momingglory (Ipomoea coccinea); details: Preemergence
Method in brief: as §1

kochia (Kochia scoparia) = test system: kochia (Kochia scoparia)
Method in brief: as §1

[3] = test system: goosegrass (Eleusine indica); details: Preemergence
Method in brief: as §1

[4] = test system: nightshade (eastern black nightshade, Solanum ptycanthum); details: Preemergence
Method in brief: as §1

[5] = test system: foxtail, giant (giant foxtail, Setaria faberii); details: Preemergence
Method in brief: as §1

[6] = test system: arrowleaf sida (Sida rhombifolia)
Method in brief: as §1

[7] = test system: velvetleaf (Abutilon theophrasti); details: Preemergence
Method in brief: as §1

[8] = test system: surinam grass (Brachiaria decumbens); details: Preemergence
Method in brief: as §1

[9] = test system: panicum, fall (fall panicum, Panicum dichotomiflorum)
Method in brief: as §1

[10] = test system: nutsedge, yellow (yellow nutsedge, Cyperus esculentus); details: Preemergence
Method in brief: as §1

[11] = test system: barnyardgrass (Echinochloa crus-galli)
Method in brief: as §1

[12] = test system: beggarticks (hairy beggarticks, Bidens pilosa)
Method in brief: as §1

[13] = test system: crabgrass, large (large crabgrass, Digitaria sanguinalis); details: Preemergence
Method in brief: as §1

[14] = test system: field bindweed (Convolvulus arvensis)
Method in brief: as §1

[15] = test system: johnsongrass (Sorghum halepense); details: Preemergence
Method in brief: as §1

[16] = test system: sandbur (southem sandbur, Cenchrus echinatus)
Method in brief: as §1

[17] = 62 g ai/ha, Postemergence, scale 0 to 100 (0 no effect, 100 complete control)
[18] = 62 g ai/ha, Preemergence, scale 0 to 100 (0 no effect, 100 complete control)
[19] = 125 g ai/ha, Postemergence, scale 0 to 100 (0 no effect, 100 complete control)
[20] = 125 g ai/ha, Preemergence, scale 0 to 100 (0 no effect, 100 complete control)
[21] = 250 g ai/ha, Postemergence, scale 0 to 100 (0 no effect, 100 complete control)
[22] = Postemergence, 31 g ai/ha, visual, scale 0 no effect to 100 complete control
[23] = Preemergence, 31 g ai/ha, scale 0 to 100, 0 no effect, 100 complete control
[24] = Preemergence, 250 g ai/ha, visual, scale 0 no effect to 100 complete control
[25] = 62 g ai/ha, scale 0 to 100 (0 no effect, 100 complete control)
[26] = 125 g ai/ha, scale 0 to 100 (0 no effect, 100 complete control)
[27] = 31 g ai/ha, scale 0 to 100, 0 no effect, 100 complete control
[28] = 250 g ai/ha, visual, scale 0 no effect to 100 complete control

Cc1ccc2ccccc2c1-c1c(OC(=O)OC(C)C)c(C)nn(C)c1=O [Compound 72]
85: Plant response rating, Ragweed [1, 22] | Plant response rating, Arrowleaf Sida [6, 20] | Plant response rating, Panicum, Fall [9, 21]
65: Plant response rating, Foxtail, Giant [5, 25] | Plant response rating, Arrowleaf Sida [6, 24] | Plant response rating, Field Bindweed [14, 20]
0: Plant response rating, Ragweed [1, 23] | Plant response rating, Nightshade [4, 27] | Plant response rating, Barnyardgrass [11, 23] | Plant response rating, Crabgrass, Large [13, 25] | Plant response rating, Crabgrass, Large [13, 27] | Plant response rating, Field Bindweed [14, 18] | Plant response rating, Field Bindweed [14, 23] | Plant response rating, Johnsongrass [15, 25] | Plant response rating, Johnsongrass [15, 27] | Plant response rating, Sandbur [16, 23]
75: Plant response rating, Arrowleaf Sida [6, 17] | Plant response rating, Surinam Grass [8, 26] | Plant response rating, Panicum, Fall [9, 22] | Plant response rating, Panicum, Fall [9, 23] | Plant response rating, Sandbur [16, 19]
70: Plant response rating, Kochia (kochia (Kochia scoparia); [22]) | Plant response rating, Foxtail, Giant [5, 26] | Plant response rating, Arrowleaf Sida [6, 22] | Plant response rating, Beggarticks [12, 23] | Plant response rating, Field Bindweed [14, 22] | Plant response rating, Sandbur [16, 17] | Plant response rating, Sandbur [16, 24]
95: Plant response rating, Ragweed [1, 21] | Plant response rating, Morningglory [2, 28] | Plant response rating, Field Bindweed [14, 19]
50: Plant response rating, Velvetleaf [7, 27] | Plant response rating, Barnyardgrass [11, 20] | Plant response rating, Barnyardgrass [11, 21] | Plant response rating, Barnyardgrass [11, 24]
35: Plant response rating, Kochia (kochia (Kochia scoparia); [18]) | Plant response rating, Foxtail, Giant [5, 27] | Plant response rating, Arrowleaf Sida [6, 18] | Plant response rating, Nutsedge, Yellow [10, 28] | Plant response rating, Johnsongrass [15, 26] | Plant response rating, Johnsongrass [15, 28] | Plant response rating, Sandbur [16, 18]
80: Plant response rating, Morningglory [2, 26] | Plant response rating, Goosegrass [3, 28] | Plant response rating, Nightshade [4, 25] | Plant response rating, Foxtail, Giant [5, 28] | Plant response rating, Arrowleaf Sida [6, 19] | Plant response rating, Velvetleaf [7, 26] | Plant response rating, Panicum, Fall [9, 17] | Plant response rating, Panicum, Fall [9, 18] | Plant response rating, Panicum, Fall [9, 19] | Plant response rating, Beggarticks [12, 18] | Plant response rating, Field Bindweed [14, 17] | Plant response rating, Sandbur [16, 21]
100: Plant response rating, Ragweed [1, 24] | Plant response rating, Nightshade [4, 26] | Plant response rating, Nightshade [4, 28] | Plant response rating, Beggarticks [12, 17] | Plant response rating, Beggarticks [12, 24]
5: Plant response rating, Surinam Grass [8, 27]
60: Plant response rating, Kochia (kochia (Kochia scoparia); [20]) | Plant response rating, Goosegrass [3, 26] | Plant response rating, Sandbur [16, 20] | Plant response rating, Sandbur [16, 22]
20: Plant response rating, Morningglory [2, 27] | Plant response rating, Goosegrass [3, 27] | Plant response rating, Arrowleaf Sida [6, 23] | Plant response rating, Nutsedge, Yellow [10, 25]
40: Plant response rating, Goosegrass [3, 25] | Plant response rating, Velvetleaf [7, 25] | Plant response rating, Surinam Grass [8, 25] | Plant response rating, Barnyardgrass [11, 17] | Plant response rating, Barnyardgrass [11, 19]
90: Plant response rating, Ragweed [1, 17] | Plant response rating, Ragweed [1, 18] | Plant response rating, Ragweed [1, 19] | Plant response rating, Ragweed [1, 20] | Plant response rating, Kochia (kochia (Kochia scoparia); [19]) | Plant response rating, Kochia (kochia (Kochia scoparia); [21]) | Plant response rating, Arrowleaf Sida [6, 21] | Plant response rating, Velvetleaf [7, 28] | Plant response rating, Surinam Grass [8, 28] | Plant response rating, Panicum, Fall [9, 20] | Plant response rating, Beggarticks [12, 22] | Plant response rating, Crabgrass, Large [13, 28] | Plant response rating, Field Bindweed [14, 21] | Plant response rating, Field Bindweed [14, 24]
98: Plant response rating, Kochia (kochia (Kochia scoparia); [17]) | Plant response rating, Kochia (kochia (Kochia scoparia); [24]) | Plant response rating, Panicum, Fall [9, 24] | Plant response rating, Beggarticks [12, 19] | Plant response rating, Beggarticks [12, 20] | Plant response rating, Beggarticks [12, 21]
30: Plant response rating, Morningglory [2, 25] | Plant response rating, Nutsedge, Yellow [10, 26] | Plant response rating, Barnyardgrass [11, 18] | Plant response rating, Barnyardgrass [11, 22] | Plant response rating, Crabgrass, Large [13, 26]
25: Plant response rating, Kochia (kochia (Kochia scoparia); [23])

Source: US10597388B2, “Pyridazinone herbicides” (FMC CORPORATION, priority 2014, dated 2020)
